Data published in patent US9232796B2, “Herbicidal compositions comprising 4-amino-3-chloro-5-fluoro-6-(4-chloro-2-fluoro-3-methoxyphenyl) pyridine-2-carboxylic acid or a derivative thereof and acetyl-CoA carboxylase (ACCase) inhibitors” (DOW AGROSCIENCES LLC, priority 2012, dated 2016).

What was measured:
LOLMU = assay: Example III postemergence foliar-applied, greenhouse, weeds common to row crops such as corn and soybeans; assay type: in vivo, Lolium multiflorum Lam.
Text: Seeds or nutlets of the desired test plant species were planted in a soil matrix prepared by mixing a loam or sandy loam soil (e.g., 28.6 percent silt, 18.8 percent clay, and 52.6 percent sand, with a pH of about 5.8 and an organic matter content of about 1.8 percent) and calcareous grit in an 80 to 20 ratio. The soil matrix was contained in plastic pots with a surface area of 84.6 square centimeters (cm^2) and a volume of 560 cubic centimeters (cm^3). When required to ensure good germination and healthy plants, a fungicide treatment and/or other chemical or physical treatment was applied. The plants were grown for 7-31 days (d) in a greenhouse with an approximate 15 hour (h) photoperiod which was maintained at about 23-29° C. during the day and 22-28° C. during the night. Nutrients (Peters Excel® 15-5-15 5-Ca 2-Mg) and water were added on a regular basis and supplemental lighting was provided with overhead metal halide 1000-Watt lamps as necessary. The plants were employed for testing when they reached the first, second, or third true leaf stage.
Treatment requirements were calculated based upon the rates being tested, the concentration of active ingredient or acid equivalent in the formulation, and a 12 mL application volume at a rate of 187 L/ha.
Treatments consisted of the acid or esters of 4-amino-3-chloro-5-fluoro-6-(4-chloro-2-fluoro-3-methoxy-phenyl)pyridine-2-carboxylic acid (Compound A), each formulated as an SC (suspension concentrate), and various herbicidal components alone and in combination.
Other herbicidal components were applied on an acid equivalent basis and included acetyl coA carboxylase (ACCase)-inhibiting herbicide (cyclohexanedione and aryloxyphenoxypropionate chemical classes) quizalofop-p-ethyl formulated as Assure® II.
All stock solutions and applications solutions were visually inspected for compound compatibility prior to application. Compound requirements are based upon a 12 mL application volume at a rate of 187 liters per hectare (L/ha). Formulated compounds were applied to the plant material with an overhead Mandel track sprayer equipped with 8002E nozzles calibrated to deliver 187 L/ha over an application area of 0.503 square meters (m^2) at a spray height of 18 to 20 inches (46 to 50 cm) above the average plant canopy height. Control plants were sprayed in the same manner with the solvent blank.
The treated plants and control plants were placed in a greenhouse as described above and watered by sub-irrigation to prevent wash-off of the test compounds. After approximately 2 weeks, the condition of the test plants as compared with that of the untreated plants was determined visually and scored on a scale of 0 to 100 percent where 0 corresponds to no injury or growth inhibition and 100 corresponds to complete kill.
Colby's equation was used to determine the herbicidal effects expected from the mixtures (Colby, S. R. 1967. Calculation of the synergistic and antagonistic response of herbicide combinations. Weeds 15:20-22.).
The following equation was used to calculate the expected activity of mixtures containing two active ingredients, A and B: Expected=A+B−(A×B/100)

ECHOR = assay: Example VI in-water applied ternary mixtures, greenhouse, transplanted paddy rice weeds; assay type: in vivo, Echinochloa oryzoides (Ard.) Fritsch
Procedure: Weed seeds or nutlets of the desired test plant species were planted in puddled soil (mud) prepared by mixing a shredded, non-sterilized mineral soil (50.5 percent silt, 25.5 percent clay, and 24 percent sand, with a pH of about 7.6 and an organic matter content of about 2.9 percent) and water at a 1:1 volumetric ratio. The prepared mud was dispensed in 365 mL aliquots into 16-ounce (oz.) non-perforated plastic pots with a surface area of 86.59 square centimeters (cm^2) leaving a headspace of 3 centimeters (cm) in each pot. Mud was allowed to dry overnight prior to planting or transplanting. Rice seeds were planted in Sun Gro MetroMix® 306 planting mixture, which typically has a pH of 6.0 to 6.8 and an organic matter content of about 30 percent, in plastic plug trays. Seedlings at the second or third leaf stage of growth were transplanted into 860 mL of mud contained in 32-oz. non-perforated plastic pots with a surface area of 86.59 cm^2 4 days prior to herbicide application. The paddy was created by filling the headspace of the pots with 2.5 to 3 cm of water. When required to ensure good germination and healthy plants, a fungicide treatment and/or other chemical or physical treatment was applied. The plants were grown for 4-22 days in a greenhouse with an approximate 14 hr. photoperiod which was maintained at about 29° C. during the day and 26° C. during the night. Nutrients were added as Osmocote® (19:6:12, N:P:K+minor nutrients) at 2 g per 16-oz. pot and 4 g per 32-oz. pot. Water was added on a regular basis to maintain the paddy flood, and supplemental lighting was provided with overhead metal halide 1000-Watt lamps as necessary. The plants were employed for testing when they reached the first through fourth true leaf stage.
Treatments consisted of the benzyl ester of 4-amino-3-chloro-5-fluoro-6-(4-chloro-2-fluoro-3-methoxy-phenyl)pyridine-2-carboxylic acid (Compound A), formulated as an SC (suspension concentrate), an ACCase inhibitor herbicide, and a third herbicidal component, each applied alone and in ternary combination. Forms of compound A were applied on an acid equivalent basis.
The ACCase inhibitor component was applied on an active ingredient basis and included cyhalofop-R-butyl formulated as Clincher® G and metamifop formulated as Metamifop EC. Other herbicidal components were applied on an active ingredient or acid equivalent basis depending on the compound and included penoxsulam formulated as Grasp® SC, bentazon sodium formulated as Basagran®, triclopyr […] (TEA) salt formulated as Grandstand® R, benzobicyclon formulated as Benzobicyclon, benfuresate formulated as Full Slot® WG, pyraclonil formulated as Pyraclon® Flowable, mefenacet (technical grade material), and pretilachlor (technical grade material).
Treatment requirements for each compound or herbicidal component were calculated based upon the rates being tested, the concentration of active ingredient or acid equivalent in the formulation, an application volume of 1 mL per component per pot, and an application area of 86.59 cm^2 per pot.
For formulated compounds, a measured amount was placed in an individual 100 or 200 mL glass vial and was dissolved in a volume of 1.25% (v/v) Agri-Dex® crop oil concentrate to obtain application solutions.
For technical grade compounds, a weighed amount was placed in an individual 100 to 200 mL glass vial and was dissolved in a volume of acetone to obtain concentrated stock solutions.
Applications were made by injecting with a pipetter appropriate amounts of the application solutions, into the aqueous layer of the paddy. Control plants were treated in the same manner with the solvent blank. Applications were made so that all treated plant material received the same concentrations of acetone and crop oil concentrate.
The treated plants and control plants were placed in a greenhouse as described above and water was added as needed to maintain a paddy flood. […]

COc1c(Cl)ccc(-c2nc(C(=O)OCc3ccccc3)c(Cl)c(N)c2F)c1F [Compound A Benzyl Ester, benzyl ester of 4-amino-3-chloro-5-fluoro-6-(4-chloro-2-fluoro-3-methoxy-phenyl)pyridine-2-carboxylic acid]
Visual Weed Control (%) - 14 DAA LOLMU Obs (LOLMU; Compound A Benzyl Ester 3.75 gae/ha): 0% | Visual Weed Control (%) - 14 DAA LOLMU Obs (LOLMU; Compound A Benzyl Ester 7.5 gae/ha): 10% | Visual Weed Control (%) - 14 DAA LOLMU Obs (LOLMU; Compound A Benzyl Ester 15 gae/ha): 10% | Visual Weed Control (%) - 24 DAA ECHOR Obs (ECHOR; Table 67, 4 gae/ha): 0% | Visual Weed Control (%) - 24 DAA ECHOR Obs (ECHOR; Table 67, 8 gae/ha): 0% | Visual Weed Control (%) - 24 DAA ECHOR Obs (ECHOR; Table 67, 16 gae/ha): 10% | Visual Weed Control (%) - 24 DAA ECHOR Obs (ECHOR; Table 71, 8 gae/ha): 10% | Visual Weed Control (%) - 24 DAA ECHOR Obs (ECHOR; Table 71, 16 gae/ha): 25%

C[C@@H](Oc1ccc(Oc2nc3ccc(Cl)cc3o2)cc1)C(=O)N(C)c1ccccc1F [Metamifop, (2R)-2-[4-[(6-chloro-2-benzoxazolyl)oxy]phenoxy]-N-(2-fluorophenyl)-N-methylpropanamide]
Visual Weed Control (%) - 24 DAA ECHOR Obs (ECHOR; Table 71, 25 gai/ha): 10% | Visual Weed Control (%) - 24 DAA ECHOR Obs (ECHOR; Table 71, 50 gai/ha): 18%

CCOC(=O)[C@@H](C)Oc1ccc(Oc2cnc3cc(Cl)ccc3n2)cc1 [Quizalofop-p-ethyl, ethyl(2R)-2-[4-[(6-chloro-2-quinoxalinyl)oxy]phenoxy]propanoate, reference compound]
Visual Weed Control (%) - 14 DAA LOLMU Obs (LOLMU; Quizalofop-p-ethyl 3.56 gae/ha): 0% | Visual Weed Control (%) - 14 DAA LOLMU Obs (LOLMU; Quizalofop-p-ethyl 7.125 gae/ha): 60%

COc1c(Cl)ccc(-c2nc(C(=O)O)c(Cl)c(N)c2F)c1F [Compound A Acid, 4-amino-3-chloro-6-(4-chloro-2-fluoro-3-methoxyphenyl)-5-fluoropyridine-2-carboxylic acid]
Visual Weed Control (%) - 14 DAA LOLMU Obs (LOLMU; Compound A Acid 3.75 gae/ha): 0% | Visual Weed Control (%) - 14 DAA LOLMU Obs (LOLMU; Compound A Acid 7.5 gae/ha): 10% | Visual Weed Control (%) - 14 DAA LOLMU Obs (LOLMU; Compound A Acid 15 gae/ha): 10%

CCCCOC(=O)[C@@H](C)Oc1ccc(Oc2ccc(C#N)cc2F)cc1 [Cyhalofop-butyl, butyl(2R)-2-[4-(4-cyano-2-fluorophenoxy)phenoxy]propanoate, reference compound]
Visual Weed Control (%) - 24 DAA ECHOR Obs (ECHOR; Table 67, 90 gai/ha): 25%
